In assay [1] the test system is JAK1/TYK2 pSTAT5 (Tyr694/699) in THP-1 cell line. Briefly: IFNa-stimulated JAK1/TYK2 pSTAT5 (Tyr694/699) inhibition cellular assay, AlphaLISA. It is filed as cell-based. To be noted: Homo sapiens; THP-1 cells, IFNa-stimulated, AlphaLISA (Assay B); read-out: Cellular_THP1_IFNa-pSTATS_TYK2. The method in brief:
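THP-1, 2e4 cells/well, HBSS; cpd 1 h 37 °C (10000–0.04 nM final, 6-fold, 8 pt); IFNa 100 ng/mL added, 30 min; lyse, freeze −80 °C; pSTAT5 AlphaLISA, 615 nm; 4PL IC50, bottom fixed 0, slope −1.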
Background: Bead proximity is the source of the signal in Alpha formats.

Assay [2] deals with T1, TYK2 JH2 (Homo sapiens, UniProt P29597).
T1 construct: purchased DiscoverX (KINOMEscan KdELECT service); host or cells: E. coli BL21-derived (T7 phage display) or HEK-293
In words: TYK2 JH2 binding assay (KINOMEscan KdELECT competitive binding). To be noted: TYK2 JH2 domain, KINOMEscan KdELECT (Assay A); read-out: Biochemical TYK2_DiscoverX_JH2_BND_Kd. The method in brief:
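Beads carrying a biotinylated ligand were mixed with tagged JH2 kinase and compound (11 points, 3-fold steps, 0.9% DMSO) and shaken 1 h at room temperature. After washing, kinase was released with 0.5 μM untagged ligand over 30 min and measured by qPCR to derive Kd.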

T1 sequence (P29597 589-875 limits assumed): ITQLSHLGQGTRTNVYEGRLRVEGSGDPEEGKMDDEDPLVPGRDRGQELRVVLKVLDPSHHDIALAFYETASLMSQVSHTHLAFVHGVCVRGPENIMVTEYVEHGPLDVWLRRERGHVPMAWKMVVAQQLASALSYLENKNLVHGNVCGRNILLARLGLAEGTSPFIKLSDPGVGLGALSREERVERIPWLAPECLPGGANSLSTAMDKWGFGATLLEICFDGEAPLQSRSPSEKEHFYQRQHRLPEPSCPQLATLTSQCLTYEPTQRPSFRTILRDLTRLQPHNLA

As to `CNc1ncc(C#Cc2ccc3nnn(C4CC4)c3c2)c2cc(NC(=O)C3CC3)ncc12` [Example 687, N-(5-((1-cyclopropyl-1H-benzo[d][1,2,3]triazol-6-yl)ethynyl)-8-(methylimino)-2,7-naphthyridin-3-yl)cyclopropanecarboxamide], the IC50 in assay [1] was no more than 500 nM. In addition, the Kd in assay [2] was no more than 100 nM.

Take `CNc1ncc(C#Cc2ccc3nnn(CCCOC)c3c2)c2cc(NC(=O)C3CC3)ncc12` [Example 688, N-(5-((1-(3-methoxypropyl)-1H-benzo[d][1,2,3]triazol-6-yl)ethynyl)-8-(methylamino)-2,7-naphthyridin-3-yl)cyclopropanecarboxamide]: the IC50 in assay [1] was no more than 500 nM. Besides, the Kd in assay [2] was no more than 100 nM.

Consider `CNc1ncc(C#Cc2cc3c(cn2)nnn3C)c2cc(NC(=O)C3CC3)ncc12` [Example 689, N-(5-((1-methyl-1H-[1,2,3]triazolo[4,5-c]pyridin-6-yl)ethynyl)-8-(methylamino)-2,7-naphthyridin-3-yl)cyclopropanecarboxamide], for which the IC50 in assay [1] was no more than 500 nM. Moreover, in assay [2], the Kd was no more than 100 nM.

Take `CNc1ncc(C#Cc2ccc(O[C@@H]3CCOC3)cc2)c2cc(NC(=O)C3CC3)ncc12` [Example 690, (R)—N-(8-(methylamino)-5-((4-((tetrahydrofuran-3-yl)oxy)phenyl)ethynyl)-2,7-naphthyridin-3-yl)cyclopropanecarboxamide]: the IC50 in assay [1] is no more than 500 nM. Besides, the Kd in assay [2] was no more than 100 nM.

For the compound `CNc1ncc(C#Cc2ccc(O[C@H]3CCOC3)cc2)c2cc(NC(=O)C3CC3)ncc12` [Example 691, (S)—N-(8-(methylamino)-5-((4-((tetrahydrofuran-3-yl)oxy)phenyl)ethynyl)-2,7-naphthyridin-3-yl)cyclopropanecarboxamide], in assay [1], the IC50 is no more than 500 nM. Moreover, the Kd in assay [2] is no more than 100 nM.

For `CNc1ncc(C#Cc2ccc3nc(COC)n(C)c3c2)c2cc(NC(=O)C3CC3)ncc12` [Example 692, N-(5-((2-(methoxymethyl)-1-methyl-1H-benzoimidazol-6-yl)ethynyl)-8-(methylamino)-2,7-naphthyridin-3-yl)cyclopropanecarboxamide], the IC50 in assay [1] was no more than 500 nM. In assay [2], the Kd was no more than 100 nM.

In the case of `CNc1ncc(C#Cc2ccc3ncn(CCCOC)c3c2)c2cc(NC(=O)C3CC3)ncc12` [Example 693, N-(5-((1-(3-methoxypropyl)-1H-benzo[d]imidazol-6-yl)ethynyl)-8-(methylamino)-2,7-naphthyridin-3-yl)cyclopropanecarboxamide], the IC50 in assay [1] is no more than 500 nM. Besides, the Kd in assay [2] is no more than 100 nM.

For `CNc1ncc(C#Cc2ccc3ncn(CCCC#N)c3c2)c2cc(NC(=O)C3CC3)ncc12` [Example 694, N-(5-((1-(3-cyanopropyl)-1H-benzo[d]imidazol-6-yl)ethynyl)-8-(methylamino)-2,7-naphthyridin-3-yl)cyclopropanecarboxamide], in assay [1], the IC50 was no more than 500 nM. In assay [2], the Kd is no more than 100 nM.

Turning to `CNc1ncc(C#Cc2ccc3c(c2)ncn3CCCC#N)c2cc(NC(=O)C3CC3)ncc12` [Example 695, N-(5-((1-(3-cyanopropyl)-1H-benzo[d]imidazol-5-yl)ethynyl)-8-(methylamino)-2,7-naphthyridin-3-yl)cyclopropanecarboxamide], the IC50 in assay [1] was no more than 500 nM. Moreover, the Kd in assay [2] was no more than 100 nM.

As for `CNc1ncc(C#Cc2ccc3c(c2)OCC(CO)O3)c2cc(NC(=O)C3CC3)ncc12` (stereo not shown) [Example 696, N-(5-((2-(hydroxymethyl)-2,3-dihydrobenzo[b][1,4]dioxin-6-yl)ethynyl)-8-(methylamino)-2,7-naphthyridin-3-yl)cyclopropanecarboxamide], in assay [1], the IC50 is no more than 500 nM. For the same compound, the Kd in assay [2] is no more than 100 nM.

For the compound `CNc1ncc(C#Cc2ccc3c(c2)OCC(COC)O3)c2cc(NC(=O)C3CC3)ncc12` (stereo not shown) [Example 697, N-(5-((2-(methoxymethyl)-2,3-dihydrobenzo[b][1,4]dioxin-6-yl)ethynyl)-8-(methylamino)-2,7-naphthyridin-3-yl)cyclopropanecarboxamide], in assay [1], the IC50 was no more than 500 nM. Further, the Kd in assay [2] was no more than 100 nM.

These data come from patent US20240025906A1 (NEURON23, INC., priority 2022, published 2024).
